Where two headings read alike, the source gives them in different places.
What was measured:
Format in all cases: cell-based
HIV-1 pNL4-3 V7A = assay: Antiviral activity against pNL4-3/V7A strain in MT4 cells (p24 estimation); conditions: Human immunodeficiency virus 1, MT4, 96 h, read-out: pNL4-3 V7A IC50
Protocol: (§1) Example 78: Evaluation of Compounds Antiviral Activity Against pNL4-3/WT & V7A Strains in MT4 Cells
(§2) MT4 cells were Transfected with HIV-1 Plasmid (pNL4-3-WT & V7A) (Cells were incubating with required number of TCID50 of HIV-1 for 1.5 h at 37° C.). After infection, the infected cells were plated at the concentration of 3×10^4 cells per well in 96 well plate. Test compound was added to the test plate in defined format with the final concentration of DMSO is not more than 1%. Incubation was carried out in CO2 incubator for 4 days for viral infection. At the end of incubation period an aliquot from each well was taken for p24 estimation. p24 estimation was carried out using Advance biosciences kit as per the procedure detailed by supplier.

HIV-1 strain 92HT599 = assay: Antiviral activity against HIV-1 strain 92HT599 in MT2 cells (p24 estimation); conditions: HIV-1 92HT599, ~96 hours
In short: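 Percent inhibition versus vehicle controls came from p24 quantified in supernatant aliquots. These were taken after ~96 h incubation of compound (DMSO ≤1%) with MT2 cells infected at 10 TCID50/30,000 cells.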

HIV-1 pNL4-3 WT = assay: Antiviral activity against pNL4-3/WT strain in MT4 cells (p24 estimation); conditions: Human immunodeficiency virus 1, MT4, 96 h, read-out: pNL4-3 WT IC50
Protocol: as §1, §2

[1] = Human immunodeficiency virus 1, 0% serum binding assay, read-out: IC50 0% serum
[2] = Human immunodeficiency virus 1, 40% serum binding assay, read-out: IC50 40% serum

Row | SMILES | IC50 (HIV-1 pNL4-3 V7A) | IC50 (HIV-1 strain 92HT599; [1]) | IC50 (HIV-1 strain 92HT599; [2]) | IC50 (HIV-1 pNL4-3 WT)
1 | CC(C)C1=C2[C@H]3CC[C@@H]4[C@@]5(C)CC[C@H](OC(=O)[C@H]6C[C@@H](C(=O)O)C6(C)C)C(C)(C)[C@@H]5CC[C@@]4(C)[C@]3(C)CC[C@@]2(NC(=O)C(C)(C)NC(=O)c2ccc(Cl)cc2)CC1=O [Example 1, (1R,3S)-3-((((3aR,5aR,5bR,7aR,9S,11aR,11bR,13aS)-3a-(2-(4-chlorobenzamido)-2-methylpropanamido)-1-isopropyl-5a,5b,8,8,11a-pentamethyl-2-oxo-3,3a,4,5,5a,5b,6,7,7a,8,9,10,11,11a,11b,12,13,13a-octadecahydro-2H-cyclopenta[a]chrysen-9-yl)oxy)carbonyl)-2,2-dimethylcyclobutane-1-carboxylic acid] | < 10 nM | < 3 nM | < 50 nM | < 5 nM
2 | CC(C)C1=C2[C@H]3CC[C@@H]4[C@@]5(C)CC[C@H](OC(=O)[C@H]6C[C@@H](C(=O)O)C6(C)C)C(C)(C)[C@@H]5CC[C@@]4(C)[C@]3(C)CC[C@@]2(NC(=O)C(C)(C)NC(=O)c2cnccn2)CC1=O [Example 5, (1R,3S)-3-((((3aR,5aR,5bR,7aR,9S,11aR,11bR,13aS)-1-isopropyl-5a,5b,8,8,11a-pentamethyl-3a-(2-methyl-2-(pyrazine-2-carboxamido)propanamido)-2-oxo-3,3a,4,5,5a,5b,6,7,7a,8,9,10,11,11a,11b,12,13,13a-octadecahydro-2H-cyclopenta[a]chrysen-9-yl)oxy)carbonyl)-2,2-dimethylcyclobutane-1-carboxylic acid] | < 10 nM | < 3 nM | 50 to 200 nM | < 5 nM
3 | Cc1cnc(C(=O)NC(C)(C)C(=O)N[C@@]23CC[C@]4(C)[C@H](CC[C@@H]5[C@@]6(C)CC[C@H](OC(=O)[C@H]7C[C@@H](C(=O)O)C7(C)C)C(C)(C)[C@@H]6CC[C@]54C)C2=C(C(C)C)C(=O)C3)cn1 [Example 7, (1R,3S)-3-((((3aR,5aR,5bR,7aR,9S,11aR,11bR,13aS)-1-isopropyl-5a,5b,8,8,11a-pentamethyl-3a-(2-methyl-2-(5-methylpyrazine-2-carboxamido)propanamido)-2-oxo-3,3a,4,5,5a,5b,6,7,7a,8,9,10,11,11a,11b,12,13,13a-octadecahydro-2H-cyclopenta[a]chrysen-9-yl)oxy)carbonyl)-2,2-dimethylcyclobutane-1-carboxylic acid] | < 10 nM | < 3 nM | < 50 nM | < 5 nM
4 | Cc1nc(C)c(C(=O)NC(C)(C)C(=O)N[C@@]23CC[C@]4(C)[C@H](CC[C@@H]5[C@@]6(C)CC[C@H](OC(=O)[C@H]7C[C@@H](C(=O)O)C7(C)C)C(C)(C)[C@@H]6CC[C@]54C)C2=C(C(C)C)C(=O)C3)s1 [Example 14, (1R,3S)-3-((((3aR,5aR,5bR,7aR,9S,11aR,11bR,13aS)-3a-(2-(2,4-dimethylthiazole-5-carboxamido)-2-methylpropanamido)-1-isopropyl-5a,5b,8,8,11a-pentamethyl-2-oxo-3,3a,4,5,5a,5b,6,7,7a,8,9,10,11,11a,11b,12,13,13a-octadecahydro-2H-cyclopenta[a]chrysen-9-yl)oxy)carbonyl)-2,2-dimethylcyclobutane-1-carboxylic acid] | 10 to 50 nM | < 3 nM | < 50 nM | < 5 nM
5 | CC(C)C1=C2[C@H]3CC[C@@H]4[C@@]5(C)CC[C@H](OC(=O)[C@H]6C[C@@H](C(=O)O)C6(C)C)C(C)(C)[C@@H]5CC[C@@]4(C)[C@]3(C)CC[C@@]2(NC(=O)C(C)(C)NC(=O)c2ccc3[nH]c(-c4cnccn4)nc3c2)CC1=O [Example 15, (1R,3S)-3-((((3aR,5aR,5bR,7aR,9S,11aR,11bR,13aS)-1-isopropyl-5a,5b,8,8,11a-pentamethyl-3a-(2-methyl-2-(2-(pyrazin-2-yl)-1H-benzo[d]imidazole-5-carboxamido)propanamido)-2-oxo-3,3a,4,5,5a,5b,6,7,7a,8,9,10,11,11a,11b,12,13,13a-octadecahydro-2H-cyclopenta[a]chrysen-9-yl)oxy)carbonyl)-2,2-dimethylcyclobutane-1-carboxylic acid] | > 50 nM | < 3 nM | < 50 nM | < 5 nM
6 | CC(C)C1=C2[C@H]3CC[C@@H]4[C@@]5(C)CC[C@H](OC(=O)[C@H]6C[C@@H](C(=O)O)C6(C)C)C(C)(C)[C@@H]5CC[C@@]4(C)[C@]3(C)CC[C@@]2(NC(=O)C(C)(C)NC(=O)c2nccn2C)CC1=O [Example 16, (1R,3S)-3-((((3aR,5aR,5bR,7aR,9S,11aR,11bR,13aS)-1-isopropyl-5a,5b,8,8,11a-pentamethyl-3a-(2-methyl-2-(1-methyl-1H-imidazole-2-carboxamido)propanamido)-2-oxo-3,3a,4,5,5a,5b,6,7,7a,8,9,10,11,11a,11b,12,13,13a-octadecahydro-2H-cyclopenta[a]chrysen-9-yl)oxy)carbonyl)-2,2-dimethylcyclobutane-1-carboxylic acid] | > 50 nM | < 3 nM | 50 to 200 nM | 5.01 to 10 nM
7 | CC(C)C1=C2[C@H]3CC[C@@H]4[C@@]5(C)CC[C@H](OC(=O)[C@H]6C[C@@H](C(=O)O)C6(C)C)C(C)(C)[C@@H]5CC[C@@]4(C)[C@]3(C)CC[C@@]2(NC(=O)C(C)(C)NC(=O)c2cc(C(C)C)n[nH]2)CC1=O [Example 17, (1R,3S)-3-((((3aR,5aR,5bR,7aR,9S,11aR,11bR,13aS)-1-isopropyl-3a-(2-(3-isopropyl-1H-pyrazole-5-carboxamido)-2-methylpropanamido)-5a,5b,8,8,11a-pentamethyl-2-oxo-3,3a,4,5,5a,5b,6,7,7a,8,9,10,11,11a,11b,12,13,13a-octadecahydro-2H-cyclopenta[a]chrysen-9-yl)oxy)carbonyl)-2,2-dimethylcyclobutane-1-carboxylic acid] | < 10 nM | < 3 nM | < 50 nM | < 5 nM
8 | CC(C)C1=C2[C@H]3CC[C@@H]4[C@@]5(C)CC[C@H](OC(=O)[C@H]6C[C@@H](C(=O)O)C6(C)C)C(C)(C)[C@@H]5CC[C@@]4(C)[C@]3(C)CC[C@@]2(NC(=O)C(C)(C)NC(=O)c2ccc(N3CCOCC3)cc2)CC1=O [Example 18, (1R,3S)-3-((((3aR,5aR,5bR,7aR,9S,11aR,11bR,13aS)-1-isopropyl-5a,5b,8,8,11a-pentamethyl-3a-(2-methyl-2-(4-morpholinobenzamido)propanamido)-2-oxo-3,3a,4,5,5a,5b,6,7,7a,8,9,10,11,11a,11b,12,13,13a-octadecahydro-2H-cyclopenta[a]chrysen-9-yl)oxy)carbonyl)-2,2-dimethylcyclobutane-1-carboxylic acid] | < 10 nM | < 3 nM | < 50 nM | < 5 nM
9 | Cc1noc(C)c1C(=O)NC(C)(C)C(=O)N[C@@]12CC[C@]3(C)[C@H](CC[C@@H]4[C@@]5(C)CC[C@H](OC(=O)[C@H]6C[C@@H](C(=O)O)C6(C)C)C(C)(C)[C@@H]5CC[C@]43C)C1=C(C(C)C)C(=O)C2 [Example 19, (1R,3S)-3-((((3aR,5aR,5bR,7aR,9S,11aR,11bR,13aS)-3a-(2-(3,5-dimethylisoxazole-4-carboxamido)-2-methylpropanamido)-1-isopropyl-5a,5b,8,8,11a-pentamethyl-2-oxo-3,3a,4,5,5a,5b,6,7,7a,8,9,10,11,11a,11b,12,13,13a-octadecahydro-2H-cyclopenta[a]chrysen-9-yl)oxy)carbonyl)-2,2-dimethylcyclobutane-1-carboxylic acid] | < 10 nM | < 3 nM | < 50 nM | < 5 nM

— patent US11034718B2, “C-3 novel triterpenone with C-17 reverse amide derivatives as HIV inhibitors” (HETERO LABS LIMITED, priority 2015, dated 2021)
